Laboratory results as given in PubChem BioAssay (NCI).
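Assay format: 96-well plates, 48-hour exposure. TGI denotes the concentration required for complete inhibition of growth.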

test system: HS 578T breast; assay: growth of human tumour cells (NCI), 48 h

| SMILES | TGI [µM] |
| --- | --- |
| Cc1ccc(-n2c(=O)c3nn4c(=O)n(-c5ccc(C)cc5)c(=O)c4nn3c2=O)cc1 | > 100 |
| CN(CCCCCl)P(=O)(OCC1=CC(=O)c2ccccc2C1=O)OC[C@H]1O[C@@H](n2cc(F)c(=O)[nH]c2=O)C[C@@H]1O (some centres not stated) | 0.603 |

test system: HCC-2998 colon; assay: growth of human tumour cells (NCI), 48 h

| SMILES | TGI [µM] |
| --- | --- |
| COc1cc(OC)c2c(c1-c1ccc(C)cc1)CC(C)N(Cc1ccccc1)[C@H]2C (some centres not stated) | > 100 |
| Cc1ccc(-n2c(=O)c3nn4c(=O)n(-c5ccc(C)cc5)c(=O)c4nn3c2=O)cc1 | > 100 |

test system: HT29 colon; assay: growth of human tumour cells (NCI), 48 h

| SMILES | TGI [µM] |
| --- | --- |
| Cc1ccc(S(=O)(=O)NC(=O)NC(C(=O)O)C(C)C)cc1 (configuration not stated) | > 100 |
| Cc1nn(C(=O)c2ccccc2O)c2c1C(c1ccc3ccccc3c1O)SC(N)=N2 (configuration not stated) | > 10 |
| COc1cc(OC)c2c(c1-c1ccc(C)cc1)CC(C)N(Cc1ccccc1)[C@H]2C (some centres not stated) | 69.7 |
| Cc1ccc(-n2c(=O)c3nn4c(=O)n(-c5ccc(C)cc5)c(=O)c4nn3c2=O)cc1 | > 100 |
| CN(CCCCCl)P(=O)(OCC1=CC(=O)c2ccccc2C1=O)OC[C@H]1O[C@@H](n2cc(F)c(=O)[nH]c2=O)C[C@@H]1O (some centres not stated) | 34.4 |

test system: MDA-MB-231 breast; assay: growth of human tumour cells (NCI), 48 h

| SMILES | TGI [µM] |
| --- | --- |
| Cc1ccc(S(=O)(=O)NC(=O)NC(C(=O)O)C(C)C)cc1 (configuration not stated) | > 100 |
| Cc1nn(C(=O)c2ccccc2O)c2c1C(c1ccc3ccccc3c1O)SC(N)=N2 (configuration not stated) | > 10 |
| COc1cc(OC)c2c(c1-c1ccc(C)cc1)CC(C)N(Cc1ccccc1)[C@H]2C (some centres not stated) | > 100 |
| CN(CCCCCl)P(=O)(OCC1=CC(=O)c2ccccc2C1=O)OC[C@H]1O[C@@H](n2cc(F)c(=O)[nH]c2=O)C[C@@H]1O (some centres not stated) | 19.3 |

test system: MDA-N; assay: growth of human tumour cells (NCI), 48 h

| SMILES | TGI [µM] |
| --- | --- |
| Cc1ccc(S(=O)(=O)NC(=O)NC(C(=O)O)C(C)C)cc1 (configuration not stated) | > 100 |
| Cc1nn(C(=O)c2ccccc2O)c2c1C(c1ccc3ccccc3c1O)SC(N)=N2 (configuration not stated) | > 10 |
| COc1cc(OC)c2c(c1-c1ccc(C)cc1)CC(C)N(Cc1ccccc1)[C@H]2C (some centres not stated) | > 100 |
| Cc1ccc(-n2c(=O)c3nn4c(=O)n(-c5ccc(C)cc5)c(=O)c4nn3c2=O)cc1 | > 100 |
| CN(CCCCCl)P(=O)(OCC1=CC(=O)c2ccccc2C1=O)OC[C@H]1O[C@@H](n2cc(F)c(=O)[nH]c2=O)C[C@@H]1O (some centres not stated) | 2.19 |

test system: SK-MEL-2 melanoma; assay: growth of human tumour cells (NCI), 48 h

| SMILES | TGI [µM] |
| --- | --- |
| Cc1ccc(S(=O)(=O)NC(=O)NC(C(=O)O)C(C)C)cc1 (configuration not stated) | > 100 |
| Cc1nn(C(=O)c2ccccc2O)c2c1C(c1ccc3ccccc3c1O)SC(N)=N2 (configuration not stated) | > 10 |
| Cc1ccc(-n2c(=O)c3nn4c(=O)n(-c5ccc(C)cc5)c(=O)c4nn3c2=O)cc1 | > 100 |
| CN(CCCCCl)P(=O)(OCC1=CC(=O)c2ccccc2C1=O)OC[C@H]1O[C@@H](n2cc(F)c(=O)[nH]c2=O)C[C@@H]1O (some centres not stated) | 23.4 |

test system: UO-31 renal; assay: growth of human tumour cells (NCI), 48 h

| SMILES | TGI [µM] |
| --- | --- |
| Cc1ccc(S(=O)(=O)NC(=O)NC(C(=O)O)C(C)C)cc1 (configuration not stated) | > 100 |
| Cc1nn(C(=O)c2ccccc2O)c2c1C(c1ccc3ccccc3c1O)SC(N)=N2 (configuration not stated) | > 10 |
| COc1cc(OC)c2c(c1-c1ccc(C)cc1)CC(C)N(Cc1ccccc1)[C@H]2C (some centres not stated) | > 100 |
| Cc1ccc(-n2c(=O)c3nn4c(=O)n(-c5ccc(C)cc5)c(=O)c4nn3c2=O)cc1 | > 100 |
| CN(CCCCCl)P(=O)(OCC1=CC(=O)c2ccccc2C1=O)OC[C@H]1O[C@@H](n2cc(F)c(=O)[nH]c2=O)C[C@@H]1O (some centres not stated) | 15.9 |

test system: 786-0 renal; assay: growth of human tumour cells (NCI), 48 h

| SMILES | TGI [µM] |
| --- | --- |
| Cc1ccc(S(=O)(=O)NC(=O)NC(C(=O)O)C(C)C)cc1 (configuration not stated) | > 100 |
| Cc1nn(C(=O)c2ccccc2O)c2c1C(c1ccc3ccccc3c1O)SC(N)=N2 (configuration not stated) | > 10 |
| COc1cc(OC)c2c(c1-c1ccc(C)cc1)CC(C)N(Cc1ccccc1)[C@H]2C (some centres not stated) | > 100 |
| Cc1ccc(-n2c(=O)c3nn4c(=O)n(-c5ccc(C)cc5)c(=O)c4nn3c2=O)cc1 | > 100 |
| CN(CCCCCl)P(=O)(OCC1=CC(=O)c2ccccc2C1=O)OC[C@H]1O[C@@H](n2cc(F)c(=O)[nH]c2=O)C[C@@H]1O (some centres not stated) | 18.3 |

test system: NCI-H460 lung; assay: growth of human tumour cells (NCI), 48 h

| SMILES | TGI [µM] |
| --- | --- |
| Cc1ccc(S(=O)(=O)NC(=O)NC(C(=O)O)C(C)C)cc1 (configuration not stated) | > 100 |
| Cc1nn(C(=O)c2ccccc2O)c2c1C(c1ccc3ccccc3c1O)SC(N)=N2 (configuration not stated) | > 10 |
| COc1cc(OC)c2c(c1-c1ccc(C)cc1)CC(C)N(Cc1ccccc1)[C@H]2C (some centres not stated) | > 100 |
| Cc1ccc(-n2c(=O)c3nn4c(=O)n(-c5ccc(C)cc5)c(=O)c4nn3c2=O)cc1 | > 100 |
| CN(CCCCCl)P(=O)(OCC1=CC(=O)c2ccccc2C1=O)OC[C@H]1O[C@@H](n2cc(F)c(=O)[nH]c2=O)C[C@@H]1O (some centres not stated) | 7.9 |

test system: SW-620 colon; assay: growth of human tumour cells (NCI), 48 h

| SMILES | TGI [µM] |
| --- | --- |
| Cc1ccc(S(=O)(=O)NC(=O)NC(C(=O)O)C(C)C)cc1 (configuration not stated) | > 100 |
| Cc1nn(C(=O)c2ccccc2O)c2c1C(c1ccc3ccccc3c1O)SC(N)=N2 (configuration not stated) | > 10 |
| COc1cc(OC)c2c(c1-c1ccc(C)cc1)CC(C)N(Cc1ccccc1)[C@H]2C (some centres not stated) | > 100 |
| Cc1ccc(-n2c(=O)c3nn4c(=O)n(-c5ccc(C)cc5)c(=O)c4nn3c2=O)cc1 | > 100 |
| CN(CCCCCl)P(=O)(OCC1=CC(=O)c2ccccc2C1=O)OC[C@H]1O[C@@H](n2cc(F)c(=O)[nH]c2=O)C[C@@H]1O (some centres not stated) | 23.1 |

test system: SNB-19 CNS; assay: growth of human tumour cells (NCI), 48 h

| SMILES | TGI [µM] |
| --- | --- |
| Cc1ccc(S(=O)(=O)NC(=O)NC(C(=O)O)C(C)C)cc1 (configuration not stated) | > 100 |
| Cc1nn(C(=O)c2ccccc2O)c2c1C(c1ccc3ccccc3c1O)SC(N)=N2 (configuration not stated) | > 10 |
| COc1cc(OC)c2c(c1-c1ccc(C)cc1)CC(C)N(Cc1ccccc1)[C@H]2C (some centres not stated) | > 100 |
| Cc1ccc(-n2c(=O)c3nn4c(=O)n(-c5ccc(C)cc5)c(=O)c4nn3c2=O)cc1 | > 100 |
| CN(CCCCCl)P(=O)(OCC1=CC(=O)c2ccccc2C1=O)OC[C@H]1O[C@@H](n2cc(F)c(=O)[nH]c2=O)C[C@@H]1O (some centres not stated) | > 40.6 |

test system: SF-539 CNS; assay: growth of human tumour cells (NCI), 48 h

| SMILES | TGI [µM] |
| --- | --- |
| Cc1ccc(S(=O)(=O)NC(=O)NC(C(=O)O)C(C)C)cc1 (configuration not stated) | > 100 |
| Cc1nn(C(=O)c2ccccc2O)c2c1C(c1ccc3ccccc3c1O)SC(N)=N2 (configuration not stated) | > 10 |
| COc1cc(OC)c2c(c1-c1ccc(C)cc1)CC(C)N(Cc1ccccc1)[C@H]2C (some centres not stated) | > 100 |
| Cc1ccc(-n2c(=O)c3nn4c(=O)n(-c5ccc(C)cc5)c(=O)c4nn3c2=O)cc1 | > 100 |

test system: RXF 393 renal; assay: growth of human tumour cells (NCI), 48 h

| SMILES | TGI [µM] |
| --- | --- |
| Cc1ccc(S(=O)(=O)NC(=O)NC(C(=O)O)C(C)C)cc1 (configuration not stated) | > 100 |
| Cc1nn(C(=O)c2ccccc2O)c2c1C(c1ccc3ccccc3c1O)SC(N)=N2 (configuration not stated) | > 10 |
| Cc1ccc(-n2c(=O)c3nn4c(=O)n(-c5ccc(C)cc5)c(=O)c4nn3c2=O)cc1 | > 100 |
| CN(CCCCCl)P(=O)(OCC1=CC(=O)c2ccccc2C1=O)OC[C@H]1O[C@@H](n2cc(F)c(=O)[nH]c2=O)C[C@@H]1O (some centres not stated) | 2.78 |

test system: OVCAR-3 ovarian; assay: growth of human tumour cells (NCI), 48 h

| SMILES | TGI [µM] |
| --- | --- |
| Cc1nn(C(=O)c2ccccc2O)c2c1C(c1ccc3ccccc3c1O)SC(N)=N2 (configuration not stated) | 9.61 |
| Cc1ccc(-n2c(=O)c3nn4c(=O)n(-c5ccc(C)cc5)c(=O)c4nn3c2=O)cc1 | > 100 |
| CN(CCCCCl)P(=O)(OCC1=CC(=O)c2ccccc2C1=O)OC[C@H]1O[C@@H](n2cc(F)c(=O)[nH]c2=O)C[C@@H]1O (some centres not stated) | 12.8 |

test system: OVCAR-5 ovarian; assay: growth of human tumour cells (NCI), 48 h

| SMILES | TGI [µM] |
| --- | --- |
| Cc1ccc(S(=O)(=O)NC(=O)NC(C(=O)O)C(C)C)cc1 (configuration not stated) | > 100 |
| Cc1nn(C(=O)c2ccccc2O)c2c1C(c1ccc3ccccc3c1O)SC(N)=N2 (configuration not stated) | > 10 |
| Cc1ccc(-n2c(=O)c3nn4c(=O)n(-c5ccc(C)cc5)c(=O)c4nn3c2=O)cc1 | > 100 |
| CN(CCCCCl)P(=O)(OCC1=CC(=O)c2ccccc2C1=O)OC[C@H]1O[C@@H](n2cc(F)c(=O)[nH]c2=O)C[C@@H]1O (some centres not stated) | 25.2 |

test system: CCRF-CEM leukemia; assay: growth of human tumour cells (NCI), 48 h

| SMILES | TGI [µM] |
| --- | --- |
| Cc1ccc(S(=O)(=O)NC(=O)NC(C(=O)O)C(C)C)cc1 (configuration not stated) | > 100 |
| Cc1nn(C(=O)c2ccccc2O)c2c1C(c1ccc3ccccc3c1O)SC(N)=N2 (configuration not stated) | > 10 |
| COc1cc(OC)c2c(c1-c1ccc(C)cc1)CC(C)N(Cc1ccccc1)[C@H]2C (some centres not stated) | > 100 |
| Cc1ccc(-n2c(=O)c3nn4c(=O)n(-c5ccc(C)cc5)c(=O)c4nn3c2=O)cc1 | > 100 |
| CN(CCCCCl)P(=O)(OCC1=CC(=O)c2ccccc2C1=O)OC[C@H]1O[C@@H](n2cc(F)c(=O)[nH]c2=O)C[C@@H]1O (some centres not stated) | 29.4 |
